Legend:
[1] = test system: MCF7 cells; assay: Whole cell cytotoxicity assay: Sulforhodamine B; format: cell-based, human; settings: compound at 100 μM, MCF7 cell growth, 48 hours with drug, SRB staining; for inhibition at 100 µM: Homo sapiens
Method: The following procedure can be found on the Developmental Therapeutics Program NCI/NIH web site at http://dtp.nci.nih.gov/brancehes/btb/ivclsp.html.
1. Human tumor cell lines of HT29, A549 and MCF7 are grown in DMEM containing 10% fetal bovine serum and 2 mM L-glutamine. Cells are plated in a 96 well plate at a density of 5000 cells per well in 100 μL of growth medium and incubated at 37° C., 5% CO2, for 24 hours prior to the addition of experimental compounds.
2. Experimental drugs are solubilized in DMSO for a final concentration of 20 mM immediately prior to use. Drugs are further diluted in growth media for a total of nine drug concentrations and a growth control. At the 24 hour time point, one plate of cells is fixed in situ with TCA as a measurement of the cell population at time zero, or the time of drug addition.
3. The plates are further incubated with drug for an additional 48 hours.
4. The cells are fixed in situ by gently aspirating off the culture media and then adding 50 μL of ice cold 10% TCA per well and incubated at 4° C. for 60 minutes. The plates are washed with tap water five times and allowed to air dry for 5 minute.
5. 50 μL of a 0.4% (w/v) Sulforhodamine B solution in 1% (v/v) acetic acid is added per well and incubated for 30 minutes at room temperature.
6. Following staining, plates are washed five times with 1% acetic acid to remove any unbound dye and then allowed to air dry for 5 minutes.
7. Stain is solubilized with 100 μL of 10 mM Tris pH 10.5 per well and placed on an orbital rotator for 5 minutes.
8. Absorbance is read at 570 nm.

[2] = test system: Histone deacetylase (HDAC), HeLa cell nuclear extract; assay: In vitro fluorescent histone deacetylase assay (Biomol kit, HeLa cell nuclear extract); format: biochemical; settings: compound at 100 μM; HeLa cell nuclear extract as HDAC source; substrate 50 μM; 10 min at room temperature
Method: Histone deacetylase (HDAC) activity assays were performed using the HDAC fluorescent activity assay/drug discovery kit (Biomol Research Laboratories, Plymouth Meeting, Pa.) essentially according to the manufacturer's instructions. The included HeLa cell nuclear extract, which contains a mosaic of HDAC enzymes and other nuclear factors, was used as the source of HDAC activity. The final substrate concentration in the assay mixture was 50 μM. The reaction was allowed to proceed for 10 min at room temperature before stopping the reaction. Test compounds were prepared as 20 mM stock solutions in DMSO (Molecular Biology grade, Sigma-Aldrich Co. St. Louis, Mo.) and stored at −70° C. Serial dilutions of test compounds were prepared in assay buffer immediately prior to testing. DMSO was determined in a separate trial to have no significant effect on the activity of this assay at concentrations up to 5%; the final DMSO concentration in the wells was no more than 2% and therefore DMSO effects were safely neglected. Assays were performed in white polystyrene 96-well half-area assay plates (Corning, Corning, N.Y.) and measured on a Wallace 1420 fluorescent plate reader (Wallac Oy, Turku, Finland) with an excitation wavelength of 355 nm, an emission wavelength of 460 nm, and a 1 sec signal averaging time.

Compound	inhibition at 100 µM [1] [%]	% inhibition HDAC @ 100 μM [2] [%]	% inhibition MCF7 cells @ 100 μM [1] [%]
O=C(NO)c1cnc(N2CCN(S(=O)(=O)c3cccc(Cl)c3)CC2)s1 [Example 18, 2-[4-(3-chlorophenylsulfonyl)-piperazin-1-yl]-thiazole-5-carboxylic acid hydroxyamide]	96.6	95	–
O=C(NO)c1cnc(N2CCN(S(=O)(=O)c3ccc(-c4sccc4CN4CCCC4)cc3)CC2)s1 [Example 89]	98.3	99	–
2-(4-{4-[(3-(pyrrolidin-1-ylmethyl)-2-furyl]phenylsulfonly}piperazin-1-yl)-1,3-thiazole-5-carboxylic acid hydroxyamide [Example 83]	–	100	98
CCCCS(=O)(=O)N1CCN(c2ncc(C(=O)NO)s2)CC1 [Example 53, 2-[4-(n-butylsulfonyl)piperazin-1-yl]-thiazole-5-carboxylic acid hydroxyamide]	89.9	94	–
CC(=O)Nc1ccc(-c2ccc(S(=O)(=O)N3CCN(c4ncc(C(=O)NO)s4)CC3)cc2)cc1 [Example 92]	88.8	100	–
CN(C)S(=O)(=O)N1CCN(c2ncc(C(=O)NO)s2)CC1 [Example 14, 2-[4-(N,N-dimethylsulfonyl)-piperazin-1-yl]-thiazole-5-carboxylic acid hydroxyamide]	89.8	98	–
O=C(NO)c1cnc(N2CCN(S(=O)(=O)c3ccc(-c4cccc(CN5CCCC5)c4)s3)CC2)s1 [Example 90, 2-(4-{5-[3-(pyrrolidin-1-ylmethyl)phenyl]thiophene-2-sulfonyl}piperazin-1-yl)-1,3-thiazole-5-carboxylic acid hydroxyamide]	98	99	–
O=C(NO)c1cnc(N2CCN(S(=O)(=O)c3ccc(-c4cccc(CN5CCCCC5)c4)cc3)CC2)s1 [Example 73]	96.7	100	–
CC(C)(C)OC(=O)n1cccc1-c1ccc(S(=O)(=O)N2CCN(c3ncc(C(=O)NO)s3)CC2)cc1 [Example 66]	97	99	–
O=C(NO)c1cnc(N2CCN(S(=O)(=O)c3cccc(F)c3)CC2)s1 [Example 35, 2-[4-(3-fluorophenylsulfonyl)-piperazin-1-yl]-thiazole-5-carboxylic acid hydroxyamide]	97.9	97	–
CN(C)C(=O)c1ccc(-c2ccc(S(=O)(=O)N3CCN(c4ncc(C(=O)NO)s4)CC3)cc2)cc1 [Example 68, 2-[4-(4′-N,N-dimethylcarboxamido-1,1′-biphenylsulfonyl)piperazin-1-yl]-1,3-thiazole-5-carboxylic acid hydroxyamide]	84.7	99	–
CN(C)Cc1ccc(S(=O)(=O)N2CCN(c3ncc(C(=O)NO)s3)CC2)cc1 [Example 95]	96.8	98	–
COc1ccc(S(=O)(=O)N2CCN(c3ncc(C(=O)NO)s3)CC2)cc1 [Example 103, 2-[4-(4-Methoxybenzenesulfonyl)piperazin-1-yl]-thiazole-5-carboxylic acid hydroxyamide]	97.5	100	–
CN1CCOc2cc(S(=O)(=O)N3CCN(c4ncc(C(=O)NO)s4)CC3)ccc21 [Example 48, 2-[4-(N-methyl-2,3-dihydrobenzisoxazinylsulfonyl)-piperazin-1-yl]-thiazole-5-carboxylic acid hydroxyamide]	89.4	96	–
O=C(NO)c1cnc(N2CCN(S(=O)(=O)c3ccc4nsnc4c3)CC2)s1 [Example 46, 2-[4-(2,1,3-benzothiadiazole-5-sulfonyl)-piperazin-1-yl]-thiazole-5-carboxylic acid hydroxyamide]	77.3	98	–
O=C(NO)c1cnc(N2CCN(S(=O)(=O)c3ccccc3)CC2)s1 [Example 12, 2-[4-(benzenesulfonyl)-piperazin-1-yl]-thiazole-5-carboxylic acid hydroxyamide]	95.5	98	–
Cn1cnc(S(=O)(=O)N2CCN(c3ncc(C(=O)NO)s3)CC2)c1 [Example 102]	84	99	–
O=C(NO)c1cnc(N2CCN(S(=O)(=O)c3ccc(-c4ccc(Cl)cc4)cc3)CC2)s1 [Example 62]	75	98	–
O=C(NO)c1cnc(N2CCN(S(=O)(=O)c3ccc(F)cc3)CC2)s1 [Example 11, 2-[4-(4-fluoro-benzenesulfonyl)-piperazin-1-yl]-thiazole-5-carboxylic acid hydroxyamide]	96.7	98	–
O=C(NO)c1cnc(N2CCN(S(=O)(=O)c3cccnc3)CC2)s1 [Example 49, 2-[4-(pyridine-3-sulfonyl)-piperazin-1-yl]-thiazole-5-carboxylic acid hydroxyamide]	95.4	85	–
O=C(NO)c1cnc(N2CCN(S(=O)(=O)c3ccc(-c4ccncc4)cc3)CC2)s1 [Example 72, 2-{4-[4-(pyridin-4-yl)phenylsulfonyl]piperazin-1-yl}-1,3-thiazole-5-carboxylic acid hydroxyamide]	84.5	98	–
O=C(NO)c1cnc(N2CCN(S(=O)(=O)c3cccc(-c4ccccc4)c3)CC2)s1 [Example 51, 2-[4-(3-biphenylsulfonyl)-piperazin-1-yl]-thiazole-5-carboxylic acid hydroxyamide]	97	100	–
Cc1cc(C)cc(S(=O)(=O)N2CCN(c3ncc(C(=O)NO)s3)CC2)c1 [Example 24, 2-[4-(3,5-dimethylphenylsulfonyl)-piperazin-1-yl]-thiazole-5-carboxylic acid hydroxyamide]	95.3	100	–
Cc1ccc(S(=O)(=O)N2CCN(c3ncc(C(=O)NO)s3)CC2)cc1C [Example 50, 2-[4-(3,4-dimethylphenylsulfonyl)-piperazin-1-yl]-thiazole-5-carboxylic acid hydroxyamide]	98.3	99	–
Cc1ccc(S(=O)(=O)N2CCN(c3ncc(C(=O)NO)s3)CC2)cc1 [Example 4, 2-[4-(4-toluene-4-sulfonyl)-piperazin-1-yl]-thiazole-5-carboxylic acid hydroxyamide]	95.4	100	–
O=C(NO)c1cnc(N2CCN(S(=O)(=O)c3ccc(CN4CCOCC4)cc3)CC2)s1 [Example 106]	82.3	99	–
Cc1cccc(Cl)c1S(=O)(=O)N1CCN(c2ncc(C(=O)NO)s2)CC1 [Example 38]	97.8	100	–
COc1ccc(S(=O)(=O)N2CCN(c3ncc(C(=O)NO)s3)CC2)cc1OC [Example 2, 2-[4-(3,4-dimethoxy-benzenesulfonyl)-piperazin-1-yl]-thiazole-5-carboxylic acid hydroxyamide]	98.3	99	–
COCc1cccc(S(=O)(=O)N2CCN(c3ncc(C(=O)NO)s3)CC2)c1 [Example 99, 2-[4-(3-methoxymethylbenzenesulfonyl)-piperazin-1-yl]-thiazole-5-carboxylic acid hydroxyamide]	96	99	–
CC(C)N(C)Cc1cccc(-c2ccc(S(=O)(=O)N3CCN(c4ncc(C(=O)NO)s4)CC3)cc2)c1 [Example 87, 2-{4-[(3′-[isopropyl(methyl)amino]methyl]-1,1′-biphenylsulfonyl]-piperazin-1-yl}-1,3-thiazole-5-carboxylic acid hydroxyamide]	97.7	99	–
